Sander's compilation of Henry's law constants (doi:10.1016/j.chroma.2014.03.040)

Assay: Henry solubility constant Hcp at 298.15 K (mol/(m3 Pa))
Details: reference: Kim and Kim (2014)
For `Cc1ccc(C)cc1` [1,4-dimethylbenzene], the “Henry solubility constant Hcp” value was 0.0013. With `CCCC=O` [butanal] the “Henry solubility constant Hcp” value was 0.061. In the case of `CCCCC=O` [pentanal], the “Henry solubility constant Hcp” value is reported as 0.039. For `Cc1cccc(C)c1` [1,3-dimethylbenzene], the “Henry solubility constant Hcp” value was 0.0013. For `c1ccccc1` [benzene], the “Henry solubility constant Hcp” value was 0.0017. With `Cc1ccccc1C` [1,2-dimethylbenzene] the “Henry solubility constant Hcp” value was 0.0019. For `CC(C)CO` [2-methyl-1-propanol], the “Henry solubility constant Hcp” value was 0.22. For `CC(C)CC=O` [3-methylbutanal], the “Henry solubility constant Hcp” value was 0.021. For `C=Cc1ccccc1` [ethenylbenzene], the “Henry solubility constant Hcp” value was 0.0027. For `CCCCOC(C)=O` [butyl ethanoate], the “Henry solubility constant Hcp” value was 0.024. With `Cc1ccccc1` [methylbenzene] the “Henry solubility constant Hcp” value was 0.0015. In the case of `CC(=O)CC(C)C` [4-methyl-2-pentanone], the “Henry solubility constant Hcp” value is reported as 0.039.
